Data set [1] in a line: Comparative stability of amorphous ditartrate and crystalline fumarate, powder form, HPLC analysis. In kind it is physicochemical. To be noted: for degradation in powder form: 14 days. How it is done: Comparative stability of amorphous ditartrate and crystalline fumarate:
1. Raw material: • Batch OP3.0B: amorphous vinflunine ditartrate. • Batch JLM4008400: crystalline vinflunine fumarate.
(§1) 2. Stability conditions: • Stability studies are carried out on the powder form away from light under the following conditions: • closed bottle: 50° C., • open bottle: 40° C., 75% relative humidity. • A measurement is taken at T0 and at T0+14 days.
3. Analytical conditions: • HPLC system: • Column: Sunfire C18, 5 μm, 4.6×250 mm (Waters) temperature maintained at 35° C. • Eluent: CH3CN/MeOH/H2O/KH2PO4 400/150/450/6.8 (ml/ml/ml/g) adjusted to pH 7 (with KOH). • Flow rate: 1 ml/min • Detection: 269 nm

Data set [2] is described as follows: Water content of the powder in the comparative stability study. In kind it is physicochemical. As to the method:
as §1

The mark [3] stands for this setting: T0 + 14 d, 40° C., 75% RH, open bottle, powder away from light.
Setting [4] is: T0 + 14 d, 50° C., closed bottle, powder away from light.
Where [5] appears, read: in the presence of moisture (40° C., 75% RH).
The mark [6] stands for this setting: T0 + 14 d, 40° C., 75% RH, open bottle.

The values below come from US8343991B2, “Anhydrous crystalline vinflunine salts, method of preparation and use thereof as a drug and means of vinflunine purification” (Pierre Fabre Medicament, priority 2007, dated 2013).

Turning to vinflunine ditartrate [OP3.OB], the “degradation in powder form” value in data set [1] (50° C. (closed bottle)) is 2.1%; in data set [1] (setting [5]) it was 1.07%. Also, the HPLC analysis was found to be 98.21% in data set [1] (setting [3]); 97.18% in data set [1] (setting [4]); 99.28% in data set [1] (T0, powder, before storage). Besides, the Water content is on record as 6.27% in data set [2] (T0) and 10.18% in data set [2] (setting [6]).
For the substance vinflunine fumarate [JLM4008400], the “degradation in powder form” value in data set [1] (50° C. (closed bottle)) and in data set [1] (setting [5]) was “less than 0.2%” each time. Moreover, the HPLC analysis in data set [1] (setting [3]) was found to be 99.38%; in data set [1] (setting [4]) it was 99.56%; in data set [1] (T0, powder, before storage), 99.52%. Also, the Water content in data set [2] (T0) was found to be 1.33%; in data set [2] (setting [6]) it was 4.18%.
